Measured values published in PubChem BioAssay (NCI).
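Step 1: Grow cells in 96-well plates. Step 2: Expose to compound for 48 hours at 5 concentrations. Step 3: Interpolate endpoints linearly; if unreached, use highest concentration. GI50 is the concentration that inhibits growth by half. TGI denotes the concentration required for complete inhibition of growth.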

Columns and labels:
Assay in all cases: growth of human tumour cells (NCI), 48 h; in the data active means GI50 below about 0.43 µM; inactive means the rest
786-0 renal = tested on: 786-0 renal
A549 NSCLC = tested on: A549 NSCLC
ACHN renal = tested on: ACHN renal
CAKI-1 renal = tested on: CAKI-1 renal
COLO 205 colon = tested on: COLO 205 colon
DLD-1 colon = tested on: DLD-1 colon
DMS 114 small cell lung = tested on: DMS 114 small cell lung
EKVX NSCLC = tested on: EKVX NSCLC
HCC-2998 colon = tested on: HCC-2998 colon
HCT-116 colon = tested on: HCT-116 colon
HCT-15 colon = tested on: HCT-15 colon
HL-60(TB) leukemia = tested on: HL-60(TB) leukemia
HOP-18 NSCLC = tested on: HOP-18 NSCLC
HOP-62 NSCLC = tested on: HOP-62 NSCLC
HT29 colon = tested on: HT29 colon
IGROV1 ovarian = tested on: IGROV1 ovarian
K-562 leukemia = tested on: K-562 leukemia
KM12 colon = tested on: KM12 colon
KM20L2 colon = tested on: KM20L2 colon
LOX IMVI melanoma = tested on: LOX IMVI melanoma
LXFL 529 NSCLC = tested on: LXFL 529 NSCLC
M14 melanoma = tested on: M14 melanoma
M19-MEL melanoma = tested on: M19-MEL melanoma
MALME-3M melanoma = tested on: MALME-3M melanoma
MOLT-4 leukemia = tested on: MOLT-4 leukemia
NCI-H226 lung = tested on: NCI-H226 lung
NCI-H23 lung = tested on: NCI-H23 lung
NCI-H460 lung = tested on: NCI-H460 lung
NCI-H522 lung = tested on: NCI-H522 lung
OVCAR-3 ovarian = tested on: OVCAR-3 ovarian
OVCAR-4 ovarian = tested on: OVCAR-4 ovarian
OVCAR-5 ovarian = tested on: OVCAR-5 ovarian
OVCAR-8 ovarian = tested on: OVCAR-8 ovarian
RPMI-8226 leukemia = tested on: RPMI-8226 leukemia
SF-268 CNS = tested on: SF-268 CNS
SF-295 CNS = tested on: SF-295 CNS
SF-539 CNS = tested on: SF-539 CNS
SK-MEL-2 melanoma = tested on: SK-MEL-2 melanoma
SK-MEL-28 melanoma = tested on: SK-MEL-28 melanoma
SK-MEL-5 melanoma = tested on: SK-MEL-5 melanoma
SK-OV-3 ovarian = tested on: SK-OV-3 ovarian
SNB-19 CNS = tested on: SNB-19 CNS
SNB-75 CNS = tested on: SNB-75 CNS
SNB-78 CNS = tested on: SNB-78 CNS
SR leukemia = tested on: SR leukemia
SW-620 colon = tested on: SW-620 colon
TK-10 renal = tested on: TK-10 renal
U251 CNS = tested on: U251 CNS
UACC-257 melanoma = tested on: UACC-257 melanoma
UACC-62 melanoma = tested on: UACC-62 melanoma
UO-31 renal = tested on: UO-31 renal
CCRF-CEM leukemia = tested on: CCRF-CEM leukemia
DMS 273 small cell lung = tested on: DMS 273 small cell lung
RXF 393 renal = tested on: RXF 393 renal
SN12C renal = tested on: SN12C renal
XF 498 CNS = tested on: XF 498 CNS
HOP-92 NSCLC = tested on: HOP-92 NSCLC

CC1(C)OC(=O)C=C([O-])O1.CC1(C)OC(=O)C=C([O-])O1.CC[O-].CC[O-].[Ti+4]
inactive: GI50 (786-0 renal) > 100 µM | GI50 (A549 NSCLC) > 100 µM | GI50 (ACHN renal) > 100 µM | GI50 (CAKI-1 renal) > 100 µM | GI50 (COLO 205 colon) > 100 µM | GI50 (DLD-1 colon) > 100 µM | GI50 (DMS 114 small cell lung) > 100 µM | GI50 (EKVX NSCLC) > 100 µM | GI50 (HCC-2998 colon) > 100 µM | GI50 (HCT-116 colon) > 100 µM | GI50 (HCT-15 colon) > 100 µM | GI50 (HL-60(TB) leukemia) > 100 µM | GI50 (HOP-18 NSCLC) > 100 µM | GI50 (HOP-62 NSCLC) > 100 µM | GI50 (HT29 colon) > 100 µM | GI50 (IGROV1 ovarian) > 100 µM | GI50 (K-562 leukemia) > 100 µM | GI50 (KM12 colon) > 100 µM | GI50 (KM20L2 colon) > 100 µM | GI50 (LOX IMVI melanoma) > 100 µM | GI50 (LXFL 529 NSCLC) > 100 µM | GI50 (M14 melanoma) > 100 µM | GI50 (M19-MEL melanoma) > 100 µM | GI50 (MALME-3M melanoma) > 100 µM | GI50 (MOLT-4 leukemia) > 100 µM | GI50 (NCI-H226 lung) > 100 µM | GI50 (NCI-H23 lung) > 100 µM | GI50 (NCI-H460 lung) > 100 µM | GI50 (NCI-H522 lung) > 100 µM | GI50 (OVCAR-3 ovarian) > 100 µM | GI50 (OVCAR-4 ovarian) > 100 µM | GI50 (OVCAR-5 ovarian) > 100 µM | GI50 (OVCAR-8 ovarian) > 100 µM | GI50 (RPMI-8226 leukemia) > 100 µM | GI50 (SF-268 CNS) > 100 µM | GI50 (SF-295 CNS) > 100 µM | GI50 (SF-539 CNS) > 100 µM | GI50 (SK-MEL-2 melanoma) > 100 µM | GI50 (SK-MEL-28 melanoma) > 100 µM | GI50 (SK-MEL-5 melanoma) > 100 µM | GI50 (SK-OV-3 ovarian) > 100 µM | GI50 (SNB-19 CNS) > 100 µM | GI50 (SNB-75 CNS) > 100 µM | GI50 (SNB-78 CNS) > 100 µM | GI50 (SR leukemia) > 100 µM | GI50 (SW-620 colon) > 100 µM | GI50 (TK-10 renal) > 100 µM | GI50 (U251 CNS) > 100 µM | GI50 (UACC-257 melanoma) > 100 µM | GI50 (UACC-62 melanoma) > 100 µM | GI50 (UO-31 renal) > 100 µM
> 100 µM: TGI (786-0 renal) | TGI (A549 NSCLC) | TGI (ACHN renal) | TGI (CAKI-1 renal) | TGI (COLO 205 colon) | TGI (DLD-1 colon) | TGI (DMS 114 small cell lung) | TGI (EKVX NSCLC) | TGI (HCC-2998 colon) | TGI (HCT-116 colon) | TGI (HCT-15 colon) | TGI (HL-60(TB) leukemia) | TGI (HOP-18 NSCLC) | TGI (HOP-62 NSCLC) | TGI (HT29 colon) | TGI (IGROV1 ovarian) | TGI (K-562 leukemia) | TGI (KM12 colon) | TGI (KM20L2 colon) | TGI (LOX IMVI melanoma) | TGI (LXFL 529 NSCLC) | TGI (M14 melanoma) | TGI (M19-MEL melanoma) | TGI (MALME-3M melanoma) | TGI (MOLT-4 leukemia) | TGI (NCI-H226 lung) | TGI (NCI-H23 lung) | TGI (NCI-H460 lung) | TGI (NCI-H522 lung) | TGI (OVCAR-3 ovarian) | TGI (OVCAR-4 ovarian) | TGI (OVCAR-5 ovarian) | TGI (OVCAR-8 ovarian) | TGI (RPMI-8226 leukemia) | TGI (SF-268 CNS) | TGI (SF-295 CNS) | TGI (SF-539 CNS) | TGI (SK-MEL-2 melanoma) | TGI (SK-MEL-28 melanoma) | TGI (SK-MEL-5 melanoma) | TGI (SK-OV-3 ovarian) | TGI (SNB-19 CNS) | TGI (SNB-75 CNS) | TGI (SNB-78 CNS) | TGI (SR leukemia) | TGI (SW-620 colon) | TGI (TK-10 renal) | TGI (U251 CNS) | TGI (UACC-257 melanoma) | TGI (UACC-62 melanoma) | TGI (UO-31 renal)

Nc1ccc([C@H]2C(=O)N[C@H]3CCC[C@H]32)cc1
> 100 µM: TGI (A549 NSCLC) | TGI (CAKI-1 renal) | TGI (CCRF-CEM leukemia) | TGI (COLO 205 colon) | TGI (DMS 114 small cell lung) | TGI (DMS 273 small cell lung) | TGI (EKVX NSCLC) | TGI (HCT-15 colon) | TGI (HL-60(TB) leukemia) | TGI (HT29 colon) | TGI (IGROV1 ovarian) | TGI (K-562 leukemia) | TGI (KM12 colon) | TGI (LOX IMVI melanoma) | TGI (M14 melanoma) | TGI (M19-MEL melanoma) | TGI (MOLT-4 leukemia) | TGI (NCI-H226 lung) | TGI (NCI-H23 lung) | TGI (NCI-H522 lung) | TGI (OVCAR-3 ovarian) | TGI (OVCAR-8 ovarian) | TGI (RPMI-8226 leukemia) | TGI (RXF 393 renal) | TGI (SF-268 CNS) | TGI (SF-295 CNS) | TGI (SF-539 CNS) | TGI (SK-MEL-28 melanoma) | TGI (SK-MEL-5 melanoma) | TGI (SK-OV-3 ovarian) | TGI (SN12C renal) | TGI (SNB-19 CNS) | TGI (SNB-75 CNS) | TGI (SW-620 colon) | TGI (TK-10 renal) | TGI (UACC-257 melanoma) | TGI (UACC-62 melanoma) | TGI (UO-31 renal) | TGI (XF 498 CNS)

O=C(CC1C(=O)Nc2ccccc2S1=O)Nc1ccc(Cl)cc1 (stereo not given)
51.1 µM: TGI (SF-539 CNS)
> 100 µM: TGI (786-0 renal) | TGI (A549 NSCLC) | TGI (ACHN renal) | TGI (CAKI-1 renal) | TGI (COLO 205 colon) | TGI (DLD-1 colon) | TGI (DMS 273 small cell lung) | TGI (HCC-2998 colon) | TGI (HCT-15 colon) | TGI (HL-60(TB) leukemia) | TGI (HOP-62 NSCLC) | TGI (HT29 colon) | TGI (IGROV1 ovarian) | TGI (K-562 leukemia) | TGI (KM12 colon) | TGI (KM20L2 colon) | TGI (LOX IMVI melanoma) | TGI (LXFL 529 NSCLC) | TGI (M14 melanoma) | TGI (MALME-3M melanoma) | TGI (MOLT-4 leukemia) | TGI (NCI-H226 lung) | TGI (NCI-H23 lung) | TGI (NCI-H460 lung) | TGI (NCI-H522 lung) | TGI (OVCAR-3 ovarian) | TGI (OVCAR-4 ovarian) | TGI (OVCAR-5 ovarian) | TGI (OVCAR-8 ovarian) | TGI (RPMI-8226 leukemia) | TGI (SF-268 CNS) | TGI (SF-295 CNS) | TGI (SK-MEL-2 melanoma) | TGI (SK-MEL-28 melanoma) | TGI (SN12C renal) | TGI (SNB-19 CNS) | TGI (SNB-75 CNS) | TGI (SNB-78 CNS) | TGI (SR leukemia) | TGI (SW-620 colon) | TGI (TK-10 renal) | TGI (U251 CNS) | TGI (UACC-257 melanoma) | TGI (UACC-62 melanoma) | TGI (UO-31 renal)
63.9 µM: TGI (SK-OV-3 ovarian)
83.4 µM: TGI (HOP-92 NSCLC)

C=C(Cl)Cc1c(O)c2c(c(O)c1CC(=C)Cl)C(=O)c1ccccc1C2=O
> 100 µM: TGI (786-0 renal) | TGI (A549 NSCLC) | TGI (ACHN renal) | TGI (CAKI-1 renal) | TGI (CCRF-CEM leukemia) | TGI (COLO 205 colon) | TGI (DLD-1 colon) | TGI (DMS 114 small cell lung) | TGI (DMS 273 small cell lung) | TGI (EKVX NSCLC) | TGI (HCC-2998 colon) | TGI (HCT-15 colon) | TGI (HL-60(TB) leukemia) | TGI (HOP-62 NSCLC) | TGI (IGROV1 ovarian) | TGI (K-562 leukemia) | TGI (KM20L2 colon) | TGI (LOX IMVI melanoma) | TGI (LXFL 529 NSCLC) | TGI (M14 melanoma) | TGI (MALME-3M melanoma) | TGI (MOLT-4 leukemia) | TGI (OVCAR-4 ovarian) | TGI (OVCAR-5 ovarian) | TGI (OVCAR-8 ovarian) | TGI (RPMI-8226 leukemia) | TGI (SK-MEL-2 melanoma) | TGI (SK-MEL-5 melanoma) | TGI (SK-OV-3 ovarian) | TGI (SN12C renal) | TGI (SR leukemia) | TGI (SW-620 colon) | TGI (TK-10 renal) | TGI (U251 CNS) | TGI (UACC-62 melanoma) | TGI (XF 498 CNS)
